# From patent publication USRE47475E1, “Selective agents for pain suppression” (WiSys Technology Foundation, Inc., priority 2002, dated 2019)
# Like-named read-outs stand apart in the source and are kept apart here.
# Legend:
# [1] = biological target: T1, GABAA/α1 (α1β3γ2 GABAA receptor) (Homo sapiens, UniProt P14867+P18507); experiment: competitive binding assay with [3H]flunitrazepam
# T1 construct: expressed in transfected cells
# Experimental: (§1) Membranes were harvested with a Brandel cell harvester followed by three ice-cold washes onto polyethyleneimine-pretreated (0.3%) Whatman GF/C filters. Filters were dried overnight and then soaked in Ecoscint, a liquid scintillation cocktail (National Diagnostics; Atlanta, Ga.). Bound radioactivity was quantified by liquid scintillation counting. Membrane protein concentrations were determined using an assay kit from Bio-Rad (Hercules, Calif.) with bovine serum albumin as the standard.
# as §1, with “The GABAA subunit selectivity of several compounds prepared as described above were determined using competitive binding assays. […] Membranes” for “Membranes”
# [2] = biological target: T2, GABAA/α2 (α2β3γ2 GABAA receptor) (Homo sapiens, UniProt P18507+P47869); experiment: competitive binding assay with [3H]flunitrazepam
# T2 construct: expressed in transfected cells
# Experimental: as §1
# as §1, with “The GABAA subunit selectivity of several compounds prepared as described above were determined using competitive binding assays. […] Membranes” for “Membranes”
# [3] = biological target: T3, GABAA/α3 (α3β3γ2 GABAA receptor) (Homo sapiens, UniProt P18507+P34903); experiment: competitive binding assay with [3H]flunitrazepam
# T3 construct: expressed in transfected cells
# Experimental: as §1
# as §1, with “The GABAA subunit selectivity of several compounds prepared as described above were determined using competitive binding assays. […] Membranes” for “Membranes”
# [4] = biological target: T4, GABAA/α5 (α5β3γ2 GABAA receptor) (Homo sapiens, UniProt P18507+P31644); experiment: competitive binding assay with [3H]flunitrazepam
# T4 construct: expressed in transfected cells
# Experimental: as §1
# as §1, with “The GABAA subunit selectivity of several compounds prepared as described above were determined using competitive binding assays. […] Membranes” for “Membranes”
# [5] = biological target: T5, GABAA/α6 (α6β3γ2 GABAA receptor) (Homo sapiens, UniProt P18507+Q16445); experiment: competitive binding assay with [3H]flunitrazepam
# T5 construct: expressed in transfected cells
# Experimental: as §1
# as §1, with “The GABAA subunit selectivity of several compounds prepared as described above were determined using competitive binding assays. […] Membranes” for “Membranes”
# [6] = tested on: Formalin Pain (mouse, i.p.); experiment: T22 formalin test (chemically induced pain); type: in vivo
# Experimental: This elicits a distinct bi-phasic behavioral profile in response to the formalin injection characterized by licking of the affected paw, and the number of licks is measured as a proxy for perceived pain. The first (acute) phase is thought to correspond to the direct stimulation of peripheral fibers while the second (inflammatory) phase is caused by the release of inflammatory mediators from the damaged tissue and nerve endings. Thus, this model is ideally suited for efficacy of an investigational AED against the acute and chronic hyper-responsive neuronal discharges following activation of peripheral nerve fibers.
# The results of the formalin test are given both as raw data (“Response”) and in an aggregate, analyzed form (“Analysis”). In the Response section, each Trial involves sixteen animals, eight controls given an i.p. injection of vehicle and eight given the compound at a specified dose. Thus, for multiple doses of the compound, there will also be multiple control groups. The data recorded for each animal is the amount of time(s) spent licking the affected hind paw in a two minute period. These two minute periods occur at five minute intervals and continue for 45 minutes. […] From this plot, we can then determine the area under the curve (AUC) for each animal during both the acute and inflammatory stages. The AUC for each phase is shown in the analysis section of the data sheet for both control and drug-treated animals The AUC for each drug-treated animal is compared to the average result from the control group, yielding an average percent of control (reported with the SEM and p value).
# [7] = tested on: GABAA receptors of superficial dorsal horn neurons; experiment: whole-cell patch-clamp of GABA-induced currents in spinal cord slices; type: cell-based, mice; details: diazepam 1 μM
# Experimental: Electrophysiology of Spinal Cord Slices. […] GABAergic membrane currents are recorded from superficial dorsal horn neurons (laminae I and II) as described previously. […] GABA-induced currents are recorded from capsaicin sensitive DRG neurons 3-30 h after plating. Whole-cell patch-clamp recordings are performed from neurons identified under visual control using the infrared gradient contrast technique coupled to a video microscopy system. In both preparations, GABA (1 mM) is applied to the some of the recorded neuron via a glass pipette by short (10 ms) electronically controlled puffer applications at a frequency of 0.07 Hz.
# Spinal cord GABAA receptors: Whole-cell patch-clamp electrophysiology recordings are performed in spinal cord slices of GABAA receptor mutant mice and of corresponding wt mice. […] GABA-induced membrane currents are evoked by external application of GABA (3 mM) to neurons located in the superficial layers (lamina I and II) of the spinal cord dorsal horn.
# rhesus monkeys = experiment: conflict model of anxiolytic activity which also measures sedation; type: in vivo; details: intravenously in propylene glycol/water
# Experimental: The data in FIGS. 21A-21F reflect the ability of the compounds or drugs to exert an anxioyic effect in rhesus monkeys (J. Rowlett, J. M. Cook et al., unpublished results) when given intravenously in propylene glycol/water solution. This is the conflict model of anxiolytic activity which also measures sedation. […] In FIG. 21B, SH-053-2′F (JY-XHE-053) is anxiolytic at a dose of greater than 0.13 mg/kg, but exerts only some slight sedation at doses greater than 1.2 mg/kg (responses decrease). In FIG. 21C it is clear the S-enantiomer of SH-053-2′F—S—CH3 is anxiolytic with no sedation up to 10-18 mg/kg, which is the highest dose tested.
# [8] = tested on: Sciatic Ligation neuropathic pain; experiment: T23 partial ligation of the sciatic nerve (mechanical allodynia); type: in vivo, rats
# Experimental: Neuropathic pain. The pro- or antinociceptive effects of the compounds of the present invention are analyzed in two manners. […] Sterile technique will be used throughout the surgery. The upper thigh will be shaved and wiped off with ethanol and betadine. A small incision will then be made in the skin. The underlying muscle of the upper thigh will be separated and the sciatic nerve exposed. The nerve is separated from the surrounding connective tissue and slightly elevated by a pair of fine, curved forceps. Approximately ⅓ to ½ of the nerve is tied off by passing a needle (7.0) and nylon suture through the nerve. The muscle and skin incision are closed off separately with 5.0 suture and the animals kept warm until they have recovered from the anesthesia. This procedure is routinely done on the right side (ipsilateral) while a sham surgery is performed on the left hind leg (contralateral). The latter involves a similar procedure with the exception that the sciatic nerve on this side is only exposed. The rats will be closely monitored daily for the development of infection or untoward effects of the surgery in which case the animals will be immediately euthanized
# After an appropriate time for recovery (7 days) the animals will be tested for the development of mechanical allodynia (abnormal response to a non-noxious stimulus). The animals are each put in a bottomless plexiglass box placed on a wire mesh (¼″) platform. After 30-60 minutes in which to acclimate, a baseline mechanical sensitivity is determined. This procedure is done by applying a series of calibrated Von Frey fibres perpendicularly to the plantar surface of each hind paw and holding it there for about 6 secs with enough force to slightly bend the fibre. After a positive response (withdrawal of the foot) is noted a weaker fibre is applied. This is repeated until a 50% threshold for withdrawal can be determined
# The allodynic threshold is then redetermined after intraperitoneal administration of an investigational AED. Testing will be conducted at the time-to-peak effect of the AED as determined in the acute seizure model.
# [9] = tested on: neuropathic pain after CCI of the sciatic nerve; experiment: chronic constriction injury (CCI) model, mechanical sensitization (von Frey filaments); type: in vivo, mice
# Experimental: In addition, the pro- or antinociceptive effects of the compounds of the present invention are analyzed in the chronic constriction injury (CCI) model. The GABAA receptor subunit selective test compounds of the present invention are analysed in the CCI model in 7-8-week-old C57BL/6 mice. See Bennett, G. J. & Xie, Y. K. A peripheral mononeuropathy in rat that produces disorders of pain sensation like those seen in man. […] Seven to eight week old mice are anesthetized with isofluran. Unilateral constriction injury of the left sciatic nerve just proximal to the trifurcation is performed with three loose ligatures. In sham-operated animals the sciatic nerve is exposed and the connective tissue is freed, but no ligatures are applied. […] Heat hyperalgesia, cold allodynia and mechanical sensitization are assessed 7-9 days after surgery. Mechanical sensitivity is assessed with electronic von Frey filaments (IITC).
# Pain studies—Neuropathic pain: HZ166 and gabapentin were analyzed in the chronic constriction injury (CCI) model. Unilateral constriction injury of the left sciatic nerve just proximal to the trifurcation was performed as described previously (Bennett and Xie, 1988). Anesthesia was induced and maintained by 2% isoflurane, combined with oxygen (30%). The sciatic nerve was exposed at the mid-thigh level proximal to the sciatic trifurcation by blunt dissection through the biceps femoris muscle. […] of nerve were freed of adhering tissue and three chromic gut ligatures (4/0) (Ethicon) were loosely put around the nerve with about 1 mm spacing. The ligatures were tied until they elicited a brief twitch in the hindlimb. The surgical wound was closed in layers. Heat hyperalgesia and mechanical sensitization were assessed 7-16 days after surgery.
# Pain Studies—Mechanical sensitization: Mechanical sensitivity was assessed with dynamic von Frey filaments (IITC, Woodland Hills, Calif.). 4-5 measurements were made for each time point and animal and averaged. Measurements of paw withdrawal thresholds of the injured paw and of the contralateral paw were made alternately.
# Statistical Analysis: For all different doses and vehicle, baseline paw withdrawal thresholds/latencies on day 7 after nerve ligation or on day 2 after zymosan A injection were subtracted from all later withdrawal thresholds and the area under the curve (AUC) was calculated. Drug effects were expressed as percent maximum possible effect (MPE) calculated from comparisons of paw withdrawal latencies or thresholds obtained prior to surgery or inflammation and before and after drug treatment. […] Unless otherwise indicated, statistical comparisons were made with one-way analysis of variance (ANOVA) followed by Scheffe's post hoc test. P values<0.05 were considered significant.
# [10] = tested on: motor coordination of mice; experiment: rotarod test (motor impairment); type: in vivo; details: HZ166 16 and 48 mg/kg, gabapentin 10 and 30 mg/kg, i.p., 60 min after treatment
# Experimental: Motor impairment: A possible impairment of motor function was analyzed in the rotarod test. Mice were trained on the rotarod (diameter 3 cm, 2 rpm) for 2 days. Animals capable of remaining on the rotarod in the absence of treatment for at least 2 min were selected for drug testing. On the test day, the latency to fall off the rod was recorded before and 60 minutes after treatment with vehicle, HZ166 or gabapentin.
# [11] = tested on: locomotor activity of mice; experiment: spontaneous locomotor activity (activity cage); type: in vivo; details: i.p.
# Experimental: Locomotor activity: Spontaneous locomotor activity was tested using a commercially available microprocessor equipped activity cage (actiframe, Gerb Elektronik). Mice were placed in the activity cage 15 min before testing. Locomotor activity was measured for 1 h after intraperitoneal administration of vehicle, gabapentin or HZ166 during the early light phase of the day-night cycle.
# neuropathic pain = details: Knabl et al., 2008, cited from earlier work; for analgesic effect after repeated administration (tolerance): once per day for nine days
# [12] = Binding Affinity at GABAA/α1, Table 3
# [13] = Binding Affinity at GABAA/α2, Table 3
# [14] = Binding Affinity at GABAA/α3, Table 3
# [15] = Binding Affinity at GABAA/α5, Table 3
# [16] = dose 35.5 (HZ-166), 18 (JY-XHE-053), 1 (XLI-JY-DMH) mg/kg, TPE 2 hr
structure (smiles),measurement,setting,value
C#Cc1ccc2c(c1)C(c1ccccc1)=NCc1c(-c3nc(CC)no3)ncn1-2 [PS-I-26],Ki,[1]; [12],933 nM
same,Ki,[2]; [13],366 nM
same,Ki,[3]; [14],260 nM
same,Ki,[4]; [15],394 nM
same,Ki,[5],> 5000 nM
"CN1C(=O)CN=C(c2ccccc2)c2cc(Cl)ccc21 [Diazepam, diazepam]",level of pain response,[6]; mouse formalin test and model of sciatic nerve ligation,strongly reduced
same,potentiation of GABA induced currents,"[7]; wild-type mice, mean±SEM, n=11",150.1±7.54%
same,potentiation of GABA induced currents,[7]; α1 mutant mice,165±22.3%
same,potentiation of GABA induced currents,[7]; α2 mutant mice,106.9±3.6%
same,potentiation of GABA induced currents,[7]; α3 mutant mice,102.5±6.6%
same,potentiation of GABA induced currents,[7]; α5 mutant mice,126±13.0%
same,anxiolytic effect (conflict model),rhesus monkeys,anxiolytic
"CCOC(=O)c1ncn2c1CN=C(c1ccccc1)c1cc(I)ccc1-2 [HZ 120, Ethyl 8-iodo-6-phenyl-4H-benzo[f]imidazo[1,5-a][1,4]diazepine-3-carboxylate]",Ki,[1]; [12],> 5000 nM
same,Ki,[2]; [13],35 nM
same,Ki,[3]; [14],78.5 nM
same,Ki,[4]; [15],20.6 nM
same,Ki,[5],32.2 nM
"C#Cc1ccc2c(c1)C(c1ccccc1Cl)=NCc1nnc(C)n1-2 [XLI-JY-DMH, 8-Acetyleno-5-(2′-chlorophenyl)-1-methyl-4H-s-triazolo-[4,3-a]-1,4-benzodiazepine]",protection at the acute phase of chemically induced pain,"[6]; formalin test, acute phase",insignificant
same,"Change (% of Control) ± SEM, T22 Formalin Pain, Acute","[6]; mouse, i.p., acute phase, dose 16 (HZ-166), 10 (JY-XHE-053), 1 (XLI-JY-DMH) mg/kg",87.6 % of Control
same,"Change (% of Control) ± SEM, T22 Formalin Pain, inflammatory","[6]; mouse, i.p., inflammatory phase, dose 16 (HZ-166), 10 (JY-XHE-053), 1 (XLI-JY-DMH) mg/kg",111.9 % of Control
same,protection against neuropathic pain caused by sciatic ligation,[8]; T23 sciatic ligation,insignificant
same,"Change (% of Control) ± SEM, T23 Sciatic Ligation",[8]; [16],136 % of Control
same,"Significance, T23 Sciatic Ligation",[8]; [16],no
same,analgesic effects in the chronic constriction injury model of neuropathic pain,"[9]; mouse, in vivo",analgesic effects
same,Ki,"[1]; Table 3, read-out: Binding Affinity at GABAA/α1",3.3 nM
same,Ki,"[2]; Table 3, read-out: Binding Affinity at GABAA/α2",0.58 nM
same,Ki,"[3]; Table 3, read-out: Binding Affinity at GABAA/α3",1.9 nM
same,Ki,"[4]; Table 3, read-out: Binding Affinity at GABAA/α5",4.4 nM
same,Ki,"[5]; Table 3, read-out: Binding Affinity at GABAA/α6",> 5000 nM
"NCC1(CC(=O)O)CCCCC1 [gabapentin, reference compound]",reversal of mechanical hypersensitivity,"[9]; i.p., CCI model",dose-dependent reversal
same,maximum antihyperalgesic effect (efficacy) compared with HZ166,[9]; reached only with sedative doses,higher
same,interfered with rotarod performance,[10],Neither
same,dose at which sedative effects were observed,[11],30 mg/kg
same,doses with significant reduction in locomotor activity,[11],≥ 30 mg/kg
CN1CC[C@]23c4c5ccc(O)c4O[C@H]2[C@@H](O)C=C[C@H]3[C@H]1C5 [morphine],analgesic effect after repeated administration (tolerance),neuropathic pain,complete tolerance
"Cn1ncnc1COc1nn2c(-c3cc(F)ccc3F)nnc2cc1C(C)(C)C [L-838,417]",antihyperalgesic activity in a rat neuropathic pain model,neuropathic pain,good antihyperalgesic activity
same,analgesic effect after repeated administration (tolerance),neuropathic pain,did not diminish
